In paper PMC2801615, “Sex Pheromone Receptor Specificity in the European Corn Borer Moth, Ostrinia nubilalis” (PLoS ONE, 2010):

target: T1, OnOr6/2 (Ostrinia nubilalis, UniProt D3J5H9); test: two-electrode voltage clamp, Xenopus oocytes; assay type: cell-based; conditions: read-out: EC50 (μM ± SEM)
T1 construct: gene OR6; full-length ORF (421-425 residues for the set) in pGEMHE; cRNA co-injected with OnOr2 in Xenopus oocytes; dimer with Or83b ortholog; with Odorant receptor coreceptor
T1 sequence (D3J5H9 1-421): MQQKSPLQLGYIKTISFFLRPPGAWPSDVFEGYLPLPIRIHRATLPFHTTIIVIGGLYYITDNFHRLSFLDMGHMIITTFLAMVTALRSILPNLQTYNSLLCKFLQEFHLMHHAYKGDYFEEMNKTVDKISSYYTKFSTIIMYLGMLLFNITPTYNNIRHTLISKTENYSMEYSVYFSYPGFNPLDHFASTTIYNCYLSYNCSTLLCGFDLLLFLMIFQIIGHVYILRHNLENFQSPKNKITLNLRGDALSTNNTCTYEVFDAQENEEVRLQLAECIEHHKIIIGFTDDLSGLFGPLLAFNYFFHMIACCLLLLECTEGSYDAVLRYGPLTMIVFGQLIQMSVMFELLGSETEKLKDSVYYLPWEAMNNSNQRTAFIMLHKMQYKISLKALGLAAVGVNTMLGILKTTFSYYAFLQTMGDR
T1 sequence (D3J5H5 1-473 partner): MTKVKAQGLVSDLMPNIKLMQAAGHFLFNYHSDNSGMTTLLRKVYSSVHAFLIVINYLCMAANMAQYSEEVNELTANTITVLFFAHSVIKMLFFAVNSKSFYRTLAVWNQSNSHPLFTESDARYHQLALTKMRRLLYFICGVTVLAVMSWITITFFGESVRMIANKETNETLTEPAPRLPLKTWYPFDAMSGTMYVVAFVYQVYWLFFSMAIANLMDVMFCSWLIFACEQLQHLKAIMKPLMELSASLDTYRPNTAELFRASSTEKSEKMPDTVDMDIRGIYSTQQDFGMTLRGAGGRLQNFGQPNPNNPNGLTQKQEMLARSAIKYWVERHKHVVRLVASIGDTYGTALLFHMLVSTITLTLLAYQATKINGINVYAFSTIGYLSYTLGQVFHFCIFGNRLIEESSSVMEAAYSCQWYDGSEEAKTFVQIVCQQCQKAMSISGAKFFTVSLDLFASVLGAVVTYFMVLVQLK
From the text: two-electrode voltage clamp, Xenopus oocytes on OnOr6/2

EC50 [µM] | SMILES
0.86 ± 0.27 | CC/C=C\CCCCCCCCCCOC(C)=O [Z11, Z11–14:OAc]

target: T2, OnOr1/2 (Ostrinia nubilalis, UniProt D3J5H4); test: two-electrode voltage clamp, Xenopus oocytes; assay type: cell-based; conditions: read-out: EC50 (μM ± SEM)
T2 construct: gene OR1; full-length ORF (421-425 residues for the set) in pGEMHE; cRNA co-injected with OnOr2 in Xenopus oocytes; dimer with Or83b ortholog; with Odorant receptor coreceptor
T2 sequence (D3J5H4 1-424): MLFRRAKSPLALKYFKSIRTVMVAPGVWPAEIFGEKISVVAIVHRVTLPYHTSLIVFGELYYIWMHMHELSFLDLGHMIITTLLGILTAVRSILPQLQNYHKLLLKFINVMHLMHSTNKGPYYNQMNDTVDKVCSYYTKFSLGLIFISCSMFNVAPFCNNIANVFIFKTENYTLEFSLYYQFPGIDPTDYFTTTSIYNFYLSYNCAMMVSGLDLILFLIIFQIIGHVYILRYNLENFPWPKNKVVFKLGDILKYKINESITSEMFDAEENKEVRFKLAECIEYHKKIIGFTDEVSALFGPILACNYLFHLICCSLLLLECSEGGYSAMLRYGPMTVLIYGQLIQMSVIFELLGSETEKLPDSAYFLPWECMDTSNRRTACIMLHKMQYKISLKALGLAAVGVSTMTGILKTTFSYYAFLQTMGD
T2 sequence (D3J5H5 1-473 partner): T1 sequence (D3J5H5 1-473 partner)
From the text: two-electrode voltage clamp, Xenopus oocytes on OnOr1/2

SMILES | EC50 [µM]
C/C=C/CCCCCCCCCCCOC(C)=O [E12, E12–14:OAc] | 0.26 ± 0.05
C/C=C\CCCCCCCCCCCOC(C)=O [Z12, Z12–14:OAc] | 2.73 ± 0.24

Continued by falling EC50, values first:

EC50 [µM] | SMILES
1.92 ± 0.2 | CC/C=C/CCCCCCCCCCOC(C)=O [E11, E11–14:OAc]
1.54 ± 0.33 | CCCC/C=C\CCCCCCCCOC(C)=O [Z9, Z9–14:OAc]
0.34 ± 0.05 | CC/C=C\CCCCCCCCCCOC(C)=O [Z11, Z11–14:OAc]
